Three molecules from EP2606887A1, “DIINDOLYLMETHANE, PRECURSOR AND DERIVATIVES THEREOF IN PREPARATION OF MEDICAMENTS FOR TREATING LIVER DISEASES” (Nanjing University, priority 2010, dated 2012) can be followed below.

For assay [1], the system named is TAA-induced model hepatic fibrosis in mice. Briefly: Treatment of TAA-induced model hepatic fibrosis in mice by intraperitoneal administration of water injection; hydroxyproline test and alanine aminotransferase test. The format is in vivo, ICR mice. The settings on record: 20mg/kg intraperitoneally, water injection with cyclodextrin in physiological saline, twice a week, 4 weeks, mean value ± standard deviation; for alanine aminotransferase: TAA model group 392±31; for hydroxyproline: hepatic tissue, TAA model group 363±32. The source says: (§1) The following example is to be regarded as a case to illustrate specific details of this invention. It should not be viewed as to limit the application scope of this invention. Application of Indole-3-carbinol, Diindolylmethane and Derivatives thereof Disclosed in This Invention in the Treatment of Modeled Hepatic Fibrosis: • 1. Injecting the phosphate buffer solution of thioacetamide (TTA) into the abdominal cavity of ICR mice so that TTA models of hepatic fibrosis can be established. • 2. Dissolving indole-3-carbinol, diindolylmethane and derivative thereof in corn oil and treating hepatic fibrosis through intragastric administration at the same time of the establishment of TTA models of hepatic fibrosis. • 3. Administering TAA, indole-3-carbinol, diindolylmethane and derivatives thereof twice a week for four weeks in succession; killing the mice and taking out the liver for hydroxyproline test and alanine aminotransferase (ALT) test. Application of Water Injection of Indole-3-carbinol, Diindolylmethane and Derivatives thereof Disclosed in This Invention in the Treatment of Modeled Hepatic Fibrosis: • 1. Injecting the phosphate buffer solution of thioacetamide (TTA) into the abdominal cavity of ICR mice so that TTA models of hepatic fibrosis can be established. • 2. Dissolving indole-3-carbinol, diindolylmethane and derivative thereof in water and treating hepatic fibrosis through intraperitoneal administration at the same time of the establishment of TTA models of hepatic fibrosis. • 3. Administering TAA, indole-3-carbinol, diindolylmethane and derivatives thereof twice a week for four weeks in succession; killing the mice and taking out the liver for hydroxyproline test and alanine aminotransferase (ALT) test. Dissolving I3C, DIM and methoxyl-DIM in corn oil so that 2.0mg/ml stock solution can be obtained for later use; establishing TAA models of hepatic fibrosis in mice with the method commonly adopted in the related literature, namely, picking 40 mice weighing 16-18g and randomly dividing them into four groups: TAA model group, I3C treatment group, DIM treatment group and 5-methoxyl-DIM treatment group; injecting TAA phosphate buffer solution (200mg/kg) into the abdominal cavity of the mice, twice a week; starting the treatment at the same time of the model establishment: administering the correlated drugs intragastrically at the rate of 20mg/kg to the mice in I3C treatment group, DIM treatment group and 5-methoxyl-DIM treatment group, twice a week; in contrast, the mice in the TAA model group are given only corn oil at the same dosage and frequency. Killing all mice of the four groups 4 weeks later and taking out the pathologically changed hepatic tissue for hydroxyproline test and alanine aminotransferase test. • (1) Hydroxyproline test Preparing the tissue homogenate of the pathologically changed liver and extracting the supernatant thereof; testing the concentration of hydroxyproline by means of alkaline hydrolysis. • (2) Results of alanine aminotransferase test Testing the serum of mice so that the concentration of alanine aminotransferase can be determined. […]

Assay [2] has the same test system. Description: Treatment of TAA-induced model hepatic fibrosis in mice by oral (intragastric) administration; hydroxyproline test and alanine aminotransferase test. To be noted: hepatic tissue, 20mg/kg intragastrically in corn oil, twice a week, 4 weeks, TAA 200mg/kg, mean value ± standard deviation; for hydroxyproline: TAA model group 356±43; for alanine aminotransferase: TAA model group 372±24. The class given is in vivo, ICR mice.
From the text: as §1, with “determined. When hepatic fibrosis is in process, what accumulate in liver are mainly collagen fibers. Since hydroxyproline is specific to collagen fibers, its concentration to some extent reflects the degree of hepatic fibrosis. As is shown in table 1, the oral administration of I3C, DIM and derivatives thereof can effectively relieve hepatic fibrosis as the concentration of hydroxyproline in the treatment groups is significant lower than that of the TAA model group.” for “determined.”

Structures are written as SMILES.

In the case of `COc1ccc2[nH]cc(Cc3c[nH]c4ccc(OC)cc34)c2c1` [5-methoxyl-DIM], the alanine aminotransferase in assay [1] was determined as 226±19 U/mgprot; in assay [2], 236±12 U/mgprot. The results for the hydroxyproline in assay [1] and in assay [2] were 203±14 µg/g liver and 194±17 µg/g liver, respectively.

Take `c1ccc2c(Cc3c[nH]c4ccccc34)c[nH]c2c1` [DIM, 3,3'-Diindolylmethane]: the figures for the alanine aminotransferase in assay [1] and in assay [2] were 187±29 U/mgprot and 204±37 U/mgprot, respectively. Further, the hydroxyproline in assay [1] amounted to 195±24 µg/g liver; in assay [2], 176±21 µg/g liver.

In assay [1], `OCc1c[nH]c2ccccc12` [I3 C, indole-3-carbinol] gave an alanine aminotransferase of 239±21 U/mgprot and a hydroxyproline of 253±21 µg/g liver. In assay [2], this molecule had a hydroxyproline of 237±11 µg/g liver and an alanine aminotransferase of 245±32 U/mgprot.
